From patent US20260258084A1, “New Peptides as Selective IL-23 Receptor Antagonists” (Sanofi, priority 2022, published 2026)
In brackets after ≈: the same amount, converted by molar mass. Read-outs that look alike come from different tables or passages of the source. Starred links: 1 amine or outer side, 2 acyl side, 3 side chain; linkers in the order of their positions; H or OH if unused. Positions of bridges follow the written chain, without caps; N, C: chain ends. Non-standard residues stand in square brackets, D forms with d. Residues, ends and D or L forms follow the SMILES beside them. *: point of attachment. Trp(7-Me) = Cc1cccc2c(C[C@H](N)C(=O)O)c[nH]c12; X1 = O=C(CCCCN[*:3])N[C@@H](CS[*:2])C(=O)[*:1]; αMeLys(Me2) = CN(C)CCCC[C@](C)(N)C(=O)O; X2 = CN(C)[C@@H](CCCCN[*:1])C(=O)[*:2]; 2Nal = N[C@@H](Cc1ccc2ccccc2c1)C(=O)O; NMe5Ava = CN(CCCCC(=O)[*:2])[*:1]; 3Pal = N[C@@H](Cc1cccnc1)C(=O)O; αMeL = CC(C)C[C@](C)(N)C(=O)O; Me2NCH2CH2 = CN(C)CC*; Aib = CC(C)(N)C(=O)O; Ava = NCCCCC(=O)O; Sar = CNCC(=O)O

What was measured:
Pancreatin = assay: Protease stability in simulated intestinal fluid (Pancreatin-SIF, FaSSIF); type: in vitro ADME; details: 1 μM peptide, 37° C.; for remaining at 1 h, 1 µM: 60 min, read-out: FaSSIF 60 (min), remaining percent of peptide; for remaining at 2 h, 1 µM: 120 min, read-out: FaSSIF 120 (min), remaining percent of peptide; for remaining at 4 h, 1 µM: 240 min, read-out: FaSSIF 240 (min), remaining percent of peptide
Protocol: (§1) Studies were carried out in simulated intestinal fluid (SIF) and simulated gastric fluid (SGF) to evaluate gastric stability of the peptide compounds disclosed herein.
Similarly, the term “Pancreatin-SIF” refers to a solution of simulated intestinal fluid containing pancreatin whereas “SIF-media” refers to a solution of simulated intestinal fluid without pancreatin.
Pancreatin-SIF was prepared by dissolving 1 mg Pancreatin (MP Biomedicals) in 10 mL SIF media concentrate (ProSense).
(§2) Peptides were first dissolved at 1 mM stock concentration in 0.01 HCl (+/−10% of DMSO) and were than diluted further with water to a stock concentration of 20 μM. Final peptide concentration in the incubation was 1 μM.
(§3) To 76 μL of the Pepsin-SGF buffer, 4 μL of the 20 µM peptide stock solution was added and incubated at 37° C. At each timepoint (0, 60, 120 and 240 minutes) the reaction was quenched with addition of 80 μL Ethanol (0.1% HCOOH). The samples were centrifuged for 20 minutes and an aliquot of the supernatant 100 μL were transferred to a LoBind-MTP plate and analyzed by LCMS/MS. The peak area response was calculated at each time point for each test compound. As internal reference, the peak area response of the same test compound at TO was calculated. The percent remaining at each timepoint was calculated based on the peak area response ratio of the test compound at TO. Time 0 was set to 100%, and all later timepoints were calculated relative to time 0.

[1] = Chemical stability assessment of peptides (relative purity loss); type: physicochemical; details: 24 hours at 37° C.; for Chemical stability (relative purity loss) Buffer pH 1.2: 50 mM HCl pH 1.2 + acetonitrile (1:1); for Chemical stability (relative purity loss) Buffer pH 6.5: 50 mM phosphate buffer pH 6.5 + acetonitrile (1:1); for Chemical stability (relative purity loss) Buffer pH 7.4: 50 mM phosphate buffer pH 7.4 + acetonitrile (1:1)
Protocol: Purity of a peptide batch was determined through UPLC/MS (Methods B-G) prior to chemical stability measurement. The target concentration was 1 mg/ml pure compound. Solutions from solid samples were prepared in the following buffer systems with a concentration of 1 mg/ml compound based on the previously determined % purity: • Solubility buffer system A) 50 mM HCl pH 1.2+Acetonitrile (1:1) • Solubility buffer system B) 50 mM phosphate buffer pH 6.5+Acetonitrile (1:1) • Solubility buffer system C) 50 mM phosphate buffer pH 7.4+Acetonitrile (1:1)
Prepared solutions were stored for 24 hours at 2° C. and 37° C. After this time course, the samples were centrifuged for 15 min at 2500 RCF to create a 1:5 dilution of the supernatant. Then 2 μl of the dilution were analysed with UHPLC-UV.
The chemical stability was rated through the relative loss of purity calculated by the equation:
[(purity after 0 hours at 37° C.)−(purity after 24 hours at 37° C.)]/(purity after 0 hours at 37° C.)]*100%
The purity is calculated as [(peak area peptide)/(total peak area)]*100%.

[2] = system: IL-23 induced STAT3 signaling in HEK-Blue™ IL-23 cells; assay: IL-23 induced STAT3 signaling in HEK-Blue IL-23 cells (SEAP reporter); type: cell-based; details: human IL23 0.25 ng/ml, read-out: pSTAT3
Description: HEK-Blue™ IL-23 cells (Invivogen) are designed for the detection of bioactive human (hIL-23) and murine IL-23 (mIL-23) by monitoring the activation of the STAT3 pathway. Binding of IL-23 to its receptor on the surface of HEK-Blue™ IL-23 cells triggers a signalling cascade leading to the activation of STAT3 and the subsequent production of secreted embryonic alkaline phosphatase (SEAP). This can be readily assessed using QUANTI-Blue™ Solution, a SEAP detection reagent.
HEK-Blue™ IL-23 cells were cultured as described by Invivogen.
On the first day of assay 10 μL of the HEK-Blue IL23 cell suspension (final concentration: 10,000 cells/well) and 10 μl of serially diluted peptides solutions were dispensed into a 384-well assay plate. After pre-incubation of the reaction mixtures at 37° C./5% CO2/95% humidity for 60 minutes, 10 μl of the human IL23 cytokine (final concentration: 0.25 ng/ml) was added to each well for the STAT3 signalling activation. The plate was incubated overnight at 37° C./5% CO2/95% humidity.
On the second day 20 μl per well of Quanti-Blue detection solution (prepared according to the manufacture instruction) was dispensed into a new 384-well plate and followed by the transfer of 5 μl supernatant of the overnight incubated cell/sample mixtures. After incubation of 45 min at room temperature signals were measured with PHERAstar (BMG) at OD 620-655 nm. Dose response data were fitted with XLfit.

Pepsin = system: T1, Pepsin; assay: Protease stability in simulated gastric fluid (Pepsin-SGF, FaSSGF); type: in vitro ADME; details: simulated gastric fluid with pepsin (Pepsin-SGF), 60 min, 1 μM peptide, 37° C., read-out: FaSSGF 60 (min), remaining percent of peptide
T1 construct: purchased Merck Millipore
Protocol: as §1
For clarification the term “Pepsin-SGF” refers to a solution of simulated gastric fluid containing pepsin whereas “SGF media” refers to a solution of simulated gastric fluid without pepsin. Pepsin-SGF was prepared by dissolving 320 mg Pepsin (Merck Millipore) in 100 mL SGF media concentrate (ProSense).
as §2
as §3, with “μM” for “µM”

[3] = Solubility testing of peptides at different pH; type: physicochemical; details: target concentration 1 mg/ml, 2 hours agitation
Protocol: Prior to the solubility measurement of a synthesized peptide batch, its purity was determined through UPLC/MS (methods B-G).
For solubility testing the target concentration was 1 mg pure compound/ml. Therefore, solutions from solid samples were prepared in a buffer system at a concentration of 1 mg/mL compound. The solid samples were obtained by drying down aliquots of a dimethyl sulfoxide stock solution using a Thermo Speedvac vacuum centrifuge. The dry down time was 3 hours. • Solubility buffer system A) 50 mM HCl pH 1.2 • Solubility buffer system B) 50 mM phosphate buffer pH 6.5 • Solubility buffer system C) 50 mM phosphate buffer pH 7.4 • Solubility buffer system D) 50 mM phosphate buffer pH 9.0
UPLC-UV (Method A) was performed after 2 hours of gentle agitation from the filtered (0.45 μm filter plates) solutions, which was obtained by 10 mins of centrifugation forced filtration at 1500 RCF (relative centrifugal acceleration).
The solubility was determined by the comparison of the UV peak area of 2 μL-injections of a buffered sample diluted 1:5 with a standard curve of a dimethyl sulfoxide reference sample of the diluted in dimethyl sulfoxide with known concentration. The different extinction coefficients were taken into account for the calculation.

[4] = target: T2, human interleukin-23 receptor (recombinant human IL-23R-Fc chimera) (Homo sapiens, UniProt Q5VWK5); assay: Human ELISA IL23/IL23R (assay for specific human IL23R antagonists); type: binding; details: Table 10; read-out: Human ELISA IL23/IL23R IC50
T2 construct: Fc (IgG Fc fusion)
Protocol: Antagonism of compounds for human interleukin-23 receptor antagonists, was determined by an ELISA assay.
A 384-well plate was coated with 50 μl/well of human IL23 at a final concentration of […] and incubated overnight at 4° C. The wells were washed 3 times with 80 μl wash buffer and blocked with 80 μl blocking buffer for 60 minutes at room temperature and washed again. 20 μl of serially diluted test peptides was added to each well and subsequently 20 μl of recombinant human IL-23R-Fc chimera at final concentration of 0.1 μg/ml. The plate was incubated for 60 minutes at room temperature. After the wells were washed, bound IL23R-Fc was detected with goat anti-hu-IgG1-HRP antibody. Signals were visualized with QuantaBlu Fluorogenic Peroxidase Substrate.

[5] = 50 mM HCl buffer, 50 mM HCl pH 1.2, read-out: Solubility Buffer pH 1.2
[6] = 50 mM phosphate buffer pH 6.5, read-out: Solubility Buffer pH 6.5
[7] = 50 mM phosphate buffer pH 7.4, read-out: Solubility Buffer pH 7.4
[8] = 50 mM phosphate buffer pH 9.0, read-out: Solubility Buffer pH 9.0

remaining at 1 h, 1 µM (Pancreatin) [%]	remaining at 2 h, 1 µM (Pancreatin) [%]	remaining at 4 h, 1 µM (Pancreatin) [%]	Chemical stability (relative purity loss) Buffer pH 1.2 [1] [%]	Chemical stability (relative purity loss) Buffer pH 6.5 [1] [%]	Chemical stability (relative purity loss) Buffer pH 7.4 [1] [%]	remaining at 1 h, 1 µM (Pepsin) [%]	solubility at 2 h [3, 5] [µg/mL]	solubility at 2 h [3, 6] [µg/mL]	solubility at 2 h [3, 7] [µg/mL]	solubility at 2 h [3, 8] [µg/mL]	IC50 [4] [nM]	Compound	IC50 [2] [nM]
90	74	62	–	–	–	96	–	–	–	–	–	CC(=O)NCCCC[C@@H]1NC(=O)[C@H](Cc2c[nH]c3c(C)cccc23)NC(=O)[C@@H](N(C)C)CCCCNC(=O)[C@@H]2CSSC[C@H](NC1=O)C(=O)N[C@@H](Cc1ccc(OCCN(C)C)cc1)C(=O)N[C@@H](Cc1ccc3ccccc3c1)C(=O)N[C@@](C)(CCCCN(C)C)C(=O)N[C@H](C(=O)N[C@@H](CC(N)=O)C(=O)N[C@@H](Cc1cccnc1)C(=O)N(C)CC(N)=O)CCC(=O)N(C)CCCCC(=O)N2 [compound 61] ([NMe5Ava]C[X2][Trp(7-Me)]K(Ac)CY(Me2NCH2CH2)[2Nal][αMeLys(Me2)]EN[3Pal][Sar]-NH2; disulfide 2-6; lactam N-10)	4.4
96	96	92	–	–	–	86	≥ 980	≥ 910	≥ 960	–	–	CC(=O)NCCCC[C@@H]1NC(=O)[C@H](Cc2c[nH]c3c(C)cccc23)NC(=O)[C@H]([C@@H](C)O)NC(=O)[C@H](CC(N)=O)NC(=O)[C@@H]2CSSC[C@H](NC1=O)C(=O)N[C@@H](Cc1ccc(OCCN(C)C)cc1)C(=O)N[C@@H](Cc1ccc3ccccc3c1)C(=O)N[C@@](C)(CC(C)C)C(=O)N[C@H](C(=O)N[C@@H](CC(N)=O)C(=O)N[C@@H](Cc1cccnc1)C(=O)N(C)CC(N)=O)CCC(=O)NCCCCC(=O)N2 [compound 65] ([Ava]CNT[Trp(7-Me)]K(Ac)CY(Me2NCH2CH2)[2Nal][αMeL]EN[3Pal][Sar]-NH2; disulfide 2-7; lactam N-11)	0.23
99	101	97	6.0	9.0	11.0	100	≥ 1520	≥ 1130	≥ 1120	620 (≈ 333 µM)	0.53	CC(=O)NCCCC[C@@H]1NC(=O)[C@H](Cc2c[nH]c3c(C)cccc23)NC(=O)[C@@H](NC(C)=O)CCCCNC(=O)[C@@H]2CSSC[C@H](NC1=O)C(=O)N[C@@H](Cc1ccc(OCCN(C)C)cc1)C(=O)N[C@@H](Cc1ccc3ccccc3c1)C(=O)NC1(CCOCC1)C(=O)N[C@H](C(=O)N[C@@H](CC(N)=O)C(=O)N[C@@H](Cc1cccnc1)C(=O)N(C)CC(N)=O)CCCCN(C)CCCCN2C [compound 127]	–

The remaining lines, values behind:

Compound	remaining at 1 h, 1 µM (Pancreatin) [%]	remaining at 2 h, 1 µM (Pancreatin) [%]	remaining at 4 h, 1 µM (Pancreatin) [%]	Chemical stability (relative purity loss) Buffer pH 1.2 [1] [%]	Chemical stability (relative purity loss) Buffer pH 6.5 [1] [%]	Chemical stability (relative purity loss) Buffer pH 7.4 [1] [%]	remaining at 1 h, 1 µM (Pepsin) [%]	solubility at 2 h [3, 5] [µg/mL]	solubility at 2 h [3, 6] [µg/mL]	solubility at 2 h [3, 7] [µg/mL]	solubility at 2 h [3, 8] [µg/mL]	IC50 [4] [nM]	IC50 [2] [nM]
COc1ccc(C[C@@H]2NC(=O)[C@@H]3CSSC[C@H](NC(=O)[C@@H](NC(C)=O)CCCCNC(=O)C[C@@H](C(=O)N[C@@H](CC(N)=O)C(=O)N[C@@H](CC(N)=O)C(N)=O)NC(=O)C(C)(C)NC(=O)[C@H](Cc4ccc5ccccc5c4)NC2=O)C(=O)N[C@@H](CC(N)=O)C(=O)N[C@@H]([C@@H](C)O)C(=O)N[C@@H](Cc2c[nH]c4ccccc24)C(=O)N[C@@H](CCC(N)=O)C(=O)N3)cc1 [compound 7] (Ac-KCNTWQCY(Me)[2Nal][Aib]DNN-NH2; lactam 1-11; disulfide 2-7)	84	68	47	28.9	1.3	6.0	0	200 (≈ 117 µM)	160 (≈ 93.8 µM)	160 (≈ 93.8 µM)	150 (≈ 87.9 µM)	–	25
CC(=O)N[C@H]1CCCCNC(=O)[C@@H]2CSSC[C@H](NC(=O)[C@H](CCC(N)=O)NC(=O)[C@H](Cc3c[nH]c4ccccc34)NC1=O)C(=O)N[C@@H](Cc1ccc(OCCN(C)C)cc1)C(=O)N[C@@H](Cc1ccc3ccccc3c1)C(=O)N[C@@](C)(CC(C)C)C(=O)N[C@H](C(=O)N[C@@H](CC(N)=O)C(=O)N[C@@H](CC(N)=O)C(N)=O)CCC(=O)NCCCCC(=O)N2 [compound 28] (Ac-KWQCY(Me2NCH2CH2)[2Nal][αMeL]ENN-NH2; linker 1-4-8 via X1)	80	68	65	–	–	–	83	–	–	–	–	–	4.11
